This note sets out measurements from the NIST ThermoML archive (doi:10.1021/je300143a).

Numbers after ± are expanded uncertainties.

For series [1] the following is noted: Crystal; DTA.
Series [2] in a line: Molar enthalpy of transition or fusion. The conditions noted are these: Crystal; DSC.

In the case of `CC(=O)c1ccc(NC2=NCCC3(CCCCC3)S2)cc1`, in series [1], the Normal melting temperature stood at 163.5 ± 0.5 °C. Also, in series [2], the “Molar enthalpy of transition or fusion” value is 7.77 ± 0.287 kcal/mol.
`CC(C)c1ccc(NC2=NCCC3(CCCCC3)S2)cc1`: the Normal melting temperature in series [1] amounted to 139.6 ± 0.5 °C. Moreover, in series [2], the “Molar enthalpy of transition or fusion” value was determined as 6.98 ± 0.287 kcal/mol.
Taken in the same sequence, the figures for `Cc1ccc(NC2=NCCC3(CCCCC3)S2)cc1Cl` were 149.2 ± 0.5 °C and 7.93 ± 0.287 kcal/mol.
Consider `FC(F)(F)c1ccc(NC2=NCCC3(CCCCC3)S2)cc1`, for which the Normal melting temperature in series [1] was found to be 149.7 ± 0.5 °C. Further, the “Molar enthalpy of transition or fusion” value in series [2] is 7.86 ± 0.287 kcal/mol.
As to `O=C(NC1=NCCC2(CCCCC2)S1)c1ccccc1` [N-(1-thia-3-azaspiro[5.5]undec-2-en-2-yl)benzamide], in series [1], the Normal melting temperature worked out at 130.2 ± 0.5 °C. Moreover, the “Molar enthalpy of transition or fusion” value in series [2] was determined as 6.67 ± 0.287 kcal/mol.
For `Brc1ccc(NC2=NCCC3(CCCCC3)S2)cc1` [N-(4-bromophenyl)-1-thia-3-azaspiro[5.5]undec-2-en-2-amine], the Normal melting temperature in series [1] came to 175.2 ± 0.5 °C. Besides, the “Molar enthalpy of transition or fusion” value in series [2] is 10.6 ± 0.311 kcal/mol.
The matching figures for `Clc1ccc(NC2=NCCC3(CCCCC3)S2)cc1` [N-(4-chlorophenyl)-1-thia-3-azaspiro[5.5]undec-2-en-2-amine]: 162.6 ± 0.5 °C and 6.67 ± 0.287 kcal/mol.
Regarding `CCc1ccc(NC2=NCCC3(CCCCC3)S2)cc1` [N-(4-ethylphenyl)-1-thia-3-azaspiro[5.5]undec-2-en-2-amine], the Normal melting temperature in series [1] worked out at 139.4 ± 0.5 °C. Besides, in series [2], the “Molar enthalpy of transition or fusion” value turned out to be 10.2 ± 0.311 kcal/mol.
With `COc1ccc(NC2=NCCC3(CCCCC3)S2)cc1` [N-(4-methoxyphenyl)-1-thia-3-azaspiro[5.5]undec-2-en-2-amine], the Normal melting temperature in series [1] was 115.4 ± 0.5 °C. Moreover, the “Molar enthalpy of transition or fusion” value in series [2] was 7 ± 0.287 kcal/mol.
`Cc1ccc(NC2=NCCC3(CCCCC3)S2)cc1` [N-(4-methylphenyl)-1-thia-3-azaspiro[5.5]undec-2-en-2-amine]: the Normal melting temperature in series [1] came to 108.2 ± 0.5 °C. For the same compound, the “Molar enthalpy of transition or fusion” value in series [2] came out at 10 ± 0.311 kcal/mol.
In the case of `c1ccc(NC2=NCCC3(CCCCC3)S2)cc1` [N-phenyl-1-thia-3-azaspiro[5.5]undec-2-en-2-amine], in series [1], the Normal melting temperature was determined as 113.4 ± 0.5 °C. In series [2], the “Molar enthalpy of transition or fusion” value worked out at 5.16 ± 0.263 kcal/mol.
